Patent US20230313199A1, “TARGET FOR MODULATING BODY MASS” (Massachusetts Institute of Technology, priority 2020, published 2023)

Columns and labels:
Type in all cases: cell-based, human
THP-1 cells [1] = assay: Oxygen consumption rate (Seahorse XF96e), parental THP-1 cells; settings: 40 μM heme for one hour vs vehicle
Experimental: Measurements of OCR, ECAR, and MMP. Oxygen consumption rate (OCR) and extracellular acidification rate (ECAR) were measured using XF96e Seahorse Extracellular Flux Analyzer per manufacturer's protocol. To increase adherence of suspension cells, Seahorse plates were coated with Corning® Cell TAK (Catalog No. 354240). THP-1 and 7CKO cells were then attached to the plate according to the manufacturer's instructions. Cells were incubated in complete RPMI media with or without 40 μM heme. Changes in oxygen consumption were measured following treatment with oligomycin (5 μM), FCCP (2 μM), and rotenone (1 μM) plus antimycin A (1 μM). For BMDM, 5×10^5 cells/well were plated in 100 μL of BMDM media, 24 hours before the start of the assay. For OCR measurements, BMDM media was replaced with 180 μL of Seahorse XF Base Medium supplemented with 10 mM D-glucose, 1 mM sodium pyruvate, and 1 mM L-glutamine. For ECAR measurements, BMDM media was replaced with 180 μL of Seahorse XF RPMI Medium pH 7.4 supplemented with 2 mM L-glutamine. The Glycolysis Stress Test was performed using D-glucose, rotenone/antimycin A, and 2-deoxy-D-glucose at 10 mM, 0.5 μM, and 50 mM final concentration, respectively.

THP-1 cells [2] = assay: Mitochondrial membrane potential by TMRE and flow cytometry; settings: heme 1 hour, reduced to similar levels as in 7CKO cells
Experimental: Mitochondrial membrane potential was measured using Abcam kit (Catalog No. ab113852). Briefly, BMDM, THP-1 and 7CKO cells were not treated or treated with […] for 1 hour. The cells were incubated with mitochondrial membrane potential indicator, 200 nM TMRE (tetramethylrhodamine, ethyl ester) for 20 minutes. The mean fluorescence intensity of TMRE were determined by flow cytometry.

4B8^ΔN cells = assay: OCR, ECAR, FPT intensity and MMP in 4B8 cells complemented with NTD-truncated MFSD7C; settings: heme 1 hour
Experimental: FIGS. 4A-4H show NTD of MFSD7C mediates heme effect on mitochondrial respiration. FIGS. 4A-4C show comparison of basal OCR (FIG. 4A), maximal OCR (FIG. 4B) and ECAR (FIG. 4C) of THP-1, 4B8, and 4B8^FL and 4B8^ΔN cells treated with vehicle or heme for 1 hour (n=18 separate experiments). […] Cells were incubated with FPT for 6 hrs, washed and reseeded in poly-lysine coated glass bottom dishes. After cells attached to the glass, medium containing 40 μM heme was added. Cells in the same field were imaged immediately and again 1 hour later. Relative FPT fluorescent intensities, normalized to THP-1, from three experiments are shown. (n=3 independent experiments). […] THP-1, 4B8, 4B8^FL and 4B8^ΔN cells were treated with vehicle or heme for 1 hour and MMP was measured by using JC-10 Mitochondrial Membrane Potential Assay Kit followed by flow cytometry. […] Shown are representative Western blotting data (FIG. 4G) and quantification of band intensities from n=3 independent experiments (FIG. 4H). P-values were calculated using two-way ANOVA (*p<0.05, **p<0.01, ***p<0.005). […]
Measurements of OCR, ECAR, and MMP. Oxygen consumption rate (OCR) and extracellular acidification rate (ECAR) were measured using XF96e Seahorse Extracellular Flux Analyzer per manufacturer's protocol. […]

293T cells = assay: Thermogenesis by FPT, parental 293T cells; settings: heme for 1 hour
Experimental: Shown are representative graphs of OCR output of the indicated cells with or without hematin treatment and their responses to oligomycin, FCCP, and rotenone plus antimycin A (FIG. 12B), basal OCR (FIG. 12C), maximal OCR (FIG. 12D), and ECAR (FIG. 12E) from two separate experiments with n=10 biologically independent samples. Data are presented as mean value±standard deviation. Each dot represents one technical replicate. […] Parental and knockout cells were incubated with no probe or FPT for 6 hours, and then washed twice. A portion of FPT-treated cells was treated with heme for 1 hour. FPT fluorescence intensity was quantified by flow cytometry. Shown are representative plots from two separate experiments. P-values were calculated using two-way ANOVA (***p<0.001).
In the second approach, we used fluorescent polymeric thermometer (FPT), which we synthesized in-house (see above). Parental and knockout THP-1 cells were mixed together, washed and incubated with FPT in 5% w/v glucose solution for 6 hrs. The cells were washed with PBS twice and reseeded in dishes with glass bottom that was coated with poly-lysine. The cells were imaged under Confocal Laser-Scanning Microscopy at 37° C. […] Then the fluorescence intensities were determined by a flow cytometer.

Structure (SMILES): C=CC1=C(C)c2cc3[n-]c(cc4[n-]c(cc5nc(cc1n2)C(C)=C5C=C)c(C)c4CCC(=O)O)c(CCC(=O)O)c3C.[Fe+2] [heme]
- basal OCR (THP-1 cells [1]): increased
- maximal OCR (THP-1 cells [1]): increased
- MMP (THP-1 cells [2]): reduced
- response to heme (OCR, ECAR, FPT intensity, MMP) (4B8^ΔN cells): little to no response to heme
- FTP intensity (293T cells): significantly stimulated
